For the series, the system named is CCRIS mutagenicity, Ames/micronucleus/aberration tests. Nature of the series: CCRIS mutagenicity studies.
Where [1] appears, read: Test System: AMES SALMONELLA TYPHIMURIUM, Strain/Indicator: TA98, Metabolic Activation: NONE, Method: PREINCUBATION
Where [2] appears, read: Test System: AMES SALMONELLA TYPHIMURIUM, Strain/Indicator: TA100, Metabolic Activation: NONE, Method: PREINCUBATION
The mark [3] stands for this setting: Test System: AMES SALMONELLA TYPHIMURIUM, Strain/Indicator: TA1535, Metabolic Activation: NONE, Method: PREINCUBATION
The mark [4] stands for this setting: Test System: AMES SALMONELLA TYPHIMURIUM, Strain/Indicator: TA1537, Metabolic Activation: NONE, Method: PREINCUBATION

Experimental findings from PubChem BioAssay AID1259407 (Chemical Carcinogenesis Research Information System (CCRIS), 2018) are described below.

Activity calls are given as the source filed them. The rule behind the calls is not given here.

For the molecule `CN=NC(C)(C)OO`, the mutagenic call reads like this: (Test System: AMES SALMONELLA TYPHIMURIUM, Strain/Indicator: TA100, Metabolic Activation: NONE) “active; positive”; (Test System: AMES SALMONELLA TYPHIMURIUM, Strain/Indicator: TA102, Metabolic Activation: NONE) “active; positive”; (Test System: AMES SALMONELLA TYPHIMURIUM, Strain/Indicator: TA1535, Metabolic Activation: NONE) “active; positive”; (Test System: E. COLI, Strain/Indicator: WP2 (HCR-), Metabolic Activation: NONE) “active; positive”.
Turning to `Cc1ccc2cc([N+](=O)[O-])ccc2c1`, the mutagenic call under setting [1] is “active; positive”.
Take `C1=Cc2c3ccc4ccccc4c3cc3cccc1c23`: the mutagenic call (Test System: AMES SALMONELLA TYPHIMURIUM, Strain/Indicator: TA98, Metabolic Activation: HUMAN, LIVER, MICROSOMES, Method: STANDARD PLATE) is “active; positive”; the mutagenic call (Test System: AMES SALMONELLA TYPHIMURIUM, Strain/Indicator: TA98, Metabolic Activation: NONE, Method: STANDARD PLATE) is “inactive; negative”; the mutagenic call (Test System: AMES SALMONELLA TYPHIMURIUM, Strain/Indicator: TA98, Metabolic Activation: RAT, LIVER, HEPATOCYTES, Method: PREINCUBATION) was “active; positive”; the mutagenic call (Test System: AMES SALMONELLA TYPHIMURIUM, Strain/Indicator: TA98, Metabolic Activation: RAT, LIVER, MICROSOMES, AROCLOR 1254, Method: STANDARD PLATE) was “active; positive”; the mutagenic call (Test System: AMES SALMONELLA TYPHIMURIUM, Strain/Indicator: TA98, Metabolic Activation: RAT, LIVER, MICROSOMES, Method: STANDARD PLATE) was “active; positive”; the mutagenic call (Test System: AMES SALMONELLA TYPHIMURIUM, Strain/Indicator: TA98, Metabolic Activation: RAT, LIVER, S-9, AROCLOR 1254 (0.4, 0.8, 1.15 OR 1.5 MG/PLATE), Method: STANDARD PLATE) is “active; positive”. For the same molecule, the mutagenic call was “active; positive” (Test System: AMES SALMONELLA TYPHIMURIUM, Strain/Indicator: TA98, Metabolic Activation: RAT, LIVER, S-9, AROCLOR 1254, Method: STANDARD PLATE); “active; positive” (Test System: AMES SALMONELLA TYPHIMURIUM, Strain/Indicator: TA98, Metabolic Activation: RAT, LUNG, MICROSOMES, AROCLOR 1254, Method: STANDARD PLATE); “inactive; negative” (Test System: AMES SALMONELLA TYPHIMURIUM, Strain/Indicator: TA98, Metabolic Activation: RAT, LUNG, MICROSOMES, Method: STANDARD PLATE); “active; positive” (Test System: CHINESE HAMSTER OVARY, Strain/Indicator: V-79/6-THIOGUANINE, Metabolic Activation: RAT, LIVER, S-9, AROCLOR 1254, Method: FLASK ASSAY); “inactive; negative” (Test System: CHINESE HAMSTER OVARY, Strain/Indicator: V-79/6-THIOGUANINE, Metabolic Activation: SHE CELL MEDIATED, Method: FLASK ASSAY); “active; positive” (Test System: CHINESE HAMSTER V-79, Strain/Indicator: V-79/6-THIOGUANINE, Metabolic Activation: RAT, LIVER, S-9, AROCLOR 1254, Method: SUSPENSION/PLATE). In addition, the mutagenic call (Test System: UDS RAT HEPATOCYTES, Strain/Indicator: THY INCORP, Metabolic Activation: NONE, Method: LIQUID SCINTILLATION COUNTING) was “active; positive”.
As to `ClCCOCCCl`, the mutagenic call was “inactive; negative” (End Point: IN VITRO CHROMOSOMAL ABERRATIONS, Test System: CHO CELLS, Metabolic Activation: NONE); “inactive; negative” (End Point: IN VITRO CHROMOSOMAL ABERRATIONS, Test System: CHO CELLS, Metabolic Activation: RAT, LIVER, S-9, AROCLOR 1254); “inactive; negative” (Test System: AMES SALMONELLA TYPHIMURIUM, Strain/Indicator: TA98, Metabolic Activation: HAMSTER, LIVER, S-9, PHENOBARBITAL AND BETA-NAPHTHOFLAVONE, Method: PREINCUBATION); “inactive; negative” under setting [1]; “inactive; negative” (Test System: AMES SALMONELLA TYPHIMURIUM, Strain/Indicator: TA98, Metabolic Activation: RAT, LIVER, S-9, PHENOBARBITAL AND BETA-NAPHTHOFLAVONE, Method: PREINCUBATION); “inactive; negative” (Test System: AMES SALMONELLA TYPHIMURIUM, Strain/Indicator: TA100, Metabolic Activation: HAMSTER, LIVER, S-9, PHENOBARBITAL AND BETA-NAPHTHOFLAVONE, Method: PREINCUBATION). Further, the mutagenic call by setting is: (Test System: AMES SALMONELLA TYPHIMURIUM, Strain/Indicator: TA100, Metabolic Activation: NONE, Method: DESICCATOR) “active; positive”; under setting [2], “inactive; negative”; (Test System: AMES SALMONELLA TYPHIMURIUM, Strain/Indicator: TA100, Metabolic Activation: RAT, LIVER, S-9, PHENOBARBITAL AND BETA-NAPHTHOFLAVONE, Method: PREINCUBATION) “inactive; negative”; under setting [3], “active; positive”; (Test System: AMES SALMONELLA TYPHIMURIUM, Strain/Indicator: TA1537, Metabolic Activation: HAMSTER, LIVER, S-9, PHENOBARBITAL AND BETA-NAPHTHOFLAVONE, Method: PREINCUBATION) “inactive; negative”; under setting [4], “inactive; negative”. In addition, the mutagenic call (Test System: AMES SALMONELLA TYPHIMURIUM, Strain/Indicator: TA1537, Metabolic Activation: RAT, LIVER, S-9, PHENOBARBITAL AND BETA-NAPHTHOFLAVONE, Method: PREINCUBATION) is “inactive; negative”; the mutagenic call (Test System: E. COLI, Strain/Indicator: WP2UVRA, Metabolic Activation: NONE, Method: PREINCUBATION) is “inactive; negative”; the mutagenic call (Test System: E. COLI, Strain/Indicator: WP2UVRA, Metabolic Activation: RAT, LIVER, S-9, PHENOBARBITAL AND BETA-NAPHTHOFLAVONE, Method: PREINCUBATION) was “inactive; negative”.
As to `CC(=O)CCN(C)N=O`, the mutagenic call (Test System: CHINESE HAMSTER V-79, Strain/Indicator: V-79/OUABAIN, Metabolic Activation: HAMSTER, HEPATOCYTES, Method: CELL-MEDIATED) was “active; positive”.
Take `O=[N+]([O-])c1ccc(-c2ncn[nH]2)o1`: the mutagenic call (Test System: E. COLI, Strain/Indicator: WP2 UVRA, Metabolic Activation: NONE, Method: SPOT) was “active; positive”.
Consider `CCOCn1cc(F)c(=O)n(C(=O)c2cccc(C(=O)Oc3nc(OC(=O)c4ccccc4)ccc3C#N)c2)c1=O`, for which the mutagenic call was “inactive; negative” under setting [1]; “inactive; negative” (Test System: AMES SALMONELLA TYPHIMURIUM, Strain/Indicator: TA98, Metabolic Activation: S-9, Method: PREINCUBATION); “inactive; negative” under setting [2]; “inactive; negative” (Test System: AMES SALMONELLA TYPHIMURIUM, Strain/Indicator: TA100, Metabolic Activation: S-9, Method: PREINCUBATION); “inactive; negative” under setting [3]; “inactive; negative” (Test System: AMES SALMONELLA TYPHIMURIUM, Strain/Indicator: TA1535, Metabolic Activation: S-9, Method: PREINCUBATION). Moreover, the mutagenic call runs as follows: under setting [4], “inactive; negative”; (Test System: AMES SALMONELLA TYPHIMURIUM, Strain/Indicator: TA1537, Metabolic Activation: S-9, Method: PREINCUBATION) “inactive; negative”; (Test System: E. COLI, Strain/Indicator: WP2 UVRA, Metabolic Activation: NONE, Method: PREINCUBATION) “inactive; negative”; (Test System: E. COLI, Strain/Indicator: WP2 UVRA, Metabolic Activation: S-9, Method: PREINCUBATION) “inactive; negative”.
